This note sets out measurements from ChEMBL document CHEMBL4507273 (2021).

Test [1] addresses T1, Alpha-2C adrenergic receptor (Homo sapiens) (UniProt P18825).
T1 sequence (whole entry): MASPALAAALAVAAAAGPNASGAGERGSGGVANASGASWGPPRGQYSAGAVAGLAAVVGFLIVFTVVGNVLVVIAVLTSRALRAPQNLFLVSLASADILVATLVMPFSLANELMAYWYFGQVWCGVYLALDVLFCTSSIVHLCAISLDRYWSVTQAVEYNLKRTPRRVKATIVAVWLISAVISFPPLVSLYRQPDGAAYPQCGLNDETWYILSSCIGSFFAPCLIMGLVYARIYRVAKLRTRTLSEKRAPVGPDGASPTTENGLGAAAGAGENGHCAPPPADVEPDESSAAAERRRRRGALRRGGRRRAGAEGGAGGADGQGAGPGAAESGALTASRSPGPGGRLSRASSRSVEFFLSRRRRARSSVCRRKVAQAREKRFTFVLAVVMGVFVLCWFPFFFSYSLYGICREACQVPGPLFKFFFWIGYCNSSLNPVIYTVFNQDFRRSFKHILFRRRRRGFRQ
The note with it: Compound concentration 10.0 uM.

The target of test [2] is [Pyruvate dehydrogenase (acetyl-transferring)] kinase isozyme 2, mitochondrial (Homo sapiens) (UniProt Q15119). Nature of the test: PDHK2(h) Eurofins Kinase panel. The note with it: Compound concentration 1.0 uM.
Another test deals with D(1A) dopamine receptor (Homo sapiens, UniProt P21728). To be noted: Compound concentration 10.0 uM.
Test [3] has as its target BDNF/NT-3 growth factors receptor (Homo sapiens) (UniProt Q16620). The test is described as follows: TrkB(h) Eurofins Kinase panel. To be noted: Compound concentration 1.0 uM.
Test [4] deals with Serine/threonine-protein kinase 26 (Homo sapiens) (UniProt Q9P289). The test is described as follows: MST4(h) Eurofins Kinase panel. The note with it: Compound concentration 1.0 uM.
Chain of Serine/threonine-protein kinase 26 (Homo sapiens) (Q9P289 2-416 limits assumed): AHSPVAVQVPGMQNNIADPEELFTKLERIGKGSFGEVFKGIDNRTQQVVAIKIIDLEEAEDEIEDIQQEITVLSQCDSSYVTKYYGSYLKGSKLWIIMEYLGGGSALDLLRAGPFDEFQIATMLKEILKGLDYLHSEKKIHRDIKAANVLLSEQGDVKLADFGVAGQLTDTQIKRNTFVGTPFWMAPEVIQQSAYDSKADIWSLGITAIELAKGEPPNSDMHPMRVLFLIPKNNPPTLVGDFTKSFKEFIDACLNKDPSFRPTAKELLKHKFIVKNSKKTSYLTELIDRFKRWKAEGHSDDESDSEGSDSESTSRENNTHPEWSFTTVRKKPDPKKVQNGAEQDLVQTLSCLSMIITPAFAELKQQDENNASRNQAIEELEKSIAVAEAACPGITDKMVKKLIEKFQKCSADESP
Test [5] deals with PAS domain-containing serine/threonine-protein kinase (Homo sapiens) (UniProt Q96RG2). The test is described as follows: PASK(h) Eurofins Kinase panel. The note with it: Compound concentration 1.0 uM.
Chain of PAS domain-containing serine/threonine-protein kinase (Homo sapiens) (Q96RG2 whole entry, the tested form may be a part): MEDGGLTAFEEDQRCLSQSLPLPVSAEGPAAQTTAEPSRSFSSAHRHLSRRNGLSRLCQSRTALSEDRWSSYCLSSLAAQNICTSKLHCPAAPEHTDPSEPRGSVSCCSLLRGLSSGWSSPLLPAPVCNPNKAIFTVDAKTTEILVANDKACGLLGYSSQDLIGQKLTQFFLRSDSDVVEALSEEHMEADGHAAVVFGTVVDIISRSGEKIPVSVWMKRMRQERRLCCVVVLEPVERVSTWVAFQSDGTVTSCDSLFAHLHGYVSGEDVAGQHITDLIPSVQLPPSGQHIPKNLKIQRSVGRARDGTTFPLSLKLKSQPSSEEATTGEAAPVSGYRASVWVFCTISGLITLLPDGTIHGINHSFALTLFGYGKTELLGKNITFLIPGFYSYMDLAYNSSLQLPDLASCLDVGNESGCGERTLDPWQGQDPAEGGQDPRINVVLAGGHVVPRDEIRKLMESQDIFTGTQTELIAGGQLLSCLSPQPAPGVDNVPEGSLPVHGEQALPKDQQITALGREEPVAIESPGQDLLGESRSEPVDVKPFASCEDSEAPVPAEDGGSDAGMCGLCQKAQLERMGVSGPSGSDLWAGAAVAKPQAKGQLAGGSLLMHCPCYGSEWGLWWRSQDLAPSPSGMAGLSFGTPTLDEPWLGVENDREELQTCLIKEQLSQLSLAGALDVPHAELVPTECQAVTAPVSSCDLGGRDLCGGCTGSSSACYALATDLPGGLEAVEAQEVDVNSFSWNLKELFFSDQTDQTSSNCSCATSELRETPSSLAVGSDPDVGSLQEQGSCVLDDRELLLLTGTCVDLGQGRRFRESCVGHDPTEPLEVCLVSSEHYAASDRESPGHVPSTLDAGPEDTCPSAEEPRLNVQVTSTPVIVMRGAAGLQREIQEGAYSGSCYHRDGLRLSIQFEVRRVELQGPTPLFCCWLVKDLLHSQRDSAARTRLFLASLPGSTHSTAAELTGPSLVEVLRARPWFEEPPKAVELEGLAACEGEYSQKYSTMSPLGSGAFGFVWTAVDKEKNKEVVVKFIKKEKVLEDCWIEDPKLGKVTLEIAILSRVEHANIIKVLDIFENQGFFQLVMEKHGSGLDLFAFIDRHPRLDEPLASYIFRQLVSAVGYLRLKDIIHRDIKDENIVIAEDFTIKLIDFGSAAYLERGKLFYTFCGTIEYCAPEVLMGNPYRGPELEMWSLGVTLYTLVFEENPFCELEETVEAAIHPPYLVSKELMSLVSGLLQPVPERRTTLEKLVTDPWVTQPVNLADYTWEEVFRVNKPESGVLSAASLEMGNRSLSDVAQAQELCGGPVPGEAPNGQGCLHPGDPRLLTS
Test [6] deals with T2, D(2) dopamine receptor (Homo sapiens, UniProt P14416). The note with it: Compound concentration 10.0 uM.
T2 sequence (P14416 whole entry): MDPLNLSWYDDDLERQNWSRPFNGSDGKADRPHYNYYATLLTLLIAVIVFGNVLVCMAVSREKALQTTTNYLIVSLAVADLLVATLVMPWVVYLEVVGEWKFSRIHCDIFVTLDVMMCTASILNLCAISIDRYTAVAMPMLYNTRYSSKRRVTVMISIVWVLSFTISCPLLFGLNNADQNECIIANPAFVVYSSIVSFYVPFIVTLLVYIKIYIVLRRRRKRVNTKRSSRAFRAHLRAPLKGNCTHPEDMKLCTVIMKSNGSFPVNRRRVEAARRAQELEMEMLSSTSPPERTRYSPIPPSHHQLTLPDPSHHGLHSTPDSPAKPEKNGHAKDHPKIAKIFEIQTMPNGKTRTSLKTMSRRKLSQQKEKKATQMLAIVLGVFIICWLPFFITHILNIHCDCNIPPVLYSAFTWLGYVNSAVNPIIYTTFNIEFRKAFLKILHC
Test [7] deals with T3, Protein kinase C epsilon type (Homo sapiens) (UniProt Q02156).
T3 sequence (whole entry): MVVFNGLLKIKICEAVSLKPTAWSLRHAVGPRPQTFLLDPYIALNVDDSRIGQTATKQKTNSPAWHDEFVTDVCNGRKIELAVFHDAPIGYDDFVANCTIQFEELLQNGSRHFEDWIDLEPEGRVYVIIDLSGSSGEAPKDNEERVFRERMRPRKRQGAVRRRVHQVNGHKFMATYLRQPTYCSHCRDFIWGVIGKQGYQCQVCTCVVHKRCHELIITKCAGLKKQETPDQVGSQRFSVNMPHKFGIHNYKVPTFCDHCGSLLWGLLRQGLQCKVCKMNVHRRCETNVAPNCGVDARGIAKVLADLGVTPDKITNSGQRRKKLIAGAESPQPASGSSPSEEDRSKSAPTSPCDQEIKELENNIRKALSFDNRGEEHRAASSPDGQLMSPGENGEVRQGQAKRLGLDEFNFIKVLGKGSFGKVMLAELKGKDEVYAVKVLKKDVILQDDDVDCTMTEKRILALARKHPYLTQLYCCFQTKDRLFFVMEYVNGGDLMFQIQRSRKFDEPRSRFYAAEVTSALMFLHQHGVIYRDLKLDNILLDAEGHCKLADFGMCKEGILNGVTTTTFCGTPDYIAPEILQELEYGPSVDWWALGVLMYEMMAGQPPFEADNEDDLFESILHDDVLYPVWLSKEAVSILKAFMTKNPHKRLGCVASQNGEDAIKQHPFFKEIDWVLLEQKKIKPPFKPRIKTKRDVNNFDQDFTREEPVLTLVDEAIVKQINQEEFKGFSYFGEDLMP
The test is described as follows: PKCepsilon(h) Eurofins Kinase panel. The note with it: Compound concentration 1.0 uM.

In test [8] the target is NT-3 growth factor receptor (Homo sapiens) (UniProt Q16288). Nature of the test: TrkC(h) Eurofins Kinase panel. To be noted: Compound concentration 1.0 uM.
The target of test [9] is Casein kinase II subunit alpha' (Homo sapiens) (UniProt P19784). The test is described as follows: CK2alpha2(h) Eurofins Kinase panel. The note with it: Compound concentration 1.0 uM.
Chain of Casein kinase II subunit alpha' (Homo sapiens) (P19784 whole entry, looked up): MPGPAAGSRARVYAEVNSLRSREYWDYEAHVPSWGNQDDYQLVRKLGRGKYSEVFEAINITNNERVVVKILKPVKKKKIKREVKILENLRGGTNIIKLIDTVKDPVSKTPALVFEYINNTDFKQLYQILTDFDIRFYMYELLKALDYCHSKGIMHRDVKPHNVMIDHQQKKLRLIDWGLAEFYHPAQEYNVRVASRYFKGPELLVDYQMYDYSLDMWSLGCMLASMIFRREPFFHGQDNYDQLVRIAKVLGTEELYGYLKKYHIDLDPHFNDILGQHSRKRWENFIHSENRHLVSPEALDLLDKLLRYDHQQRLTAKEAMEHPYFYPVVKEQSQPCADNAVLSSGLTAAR
Test [10] concerns the target T4, Testis-specific serine/threonine-protein kinase 1 (Homo sapiens) (UniProt Q9BXA7).
T4 sequence (whole entry): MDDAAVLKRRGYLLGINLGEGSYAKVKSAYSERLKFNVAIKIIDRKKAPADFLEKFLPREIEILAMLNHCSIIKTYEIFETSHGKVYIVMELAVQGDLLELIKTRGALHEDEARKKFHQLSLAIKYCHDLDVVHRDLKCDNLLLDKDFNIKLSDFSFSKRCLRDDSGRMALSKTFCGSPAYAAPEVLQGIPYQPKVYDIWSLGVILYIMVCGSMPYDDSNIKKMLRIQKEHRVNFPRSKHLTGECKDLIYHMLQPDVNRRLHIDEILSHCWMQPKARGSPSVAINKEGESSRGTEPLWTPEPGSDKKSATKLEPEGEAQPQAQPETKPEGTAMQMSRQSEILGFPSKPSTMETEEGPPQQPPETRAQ
The test is described as follows: TSSK1(h) Eurofins Kinase panel. The note with it: Compound concentration 1.0 uM.

The target of test [11] is Insulin-like growth factor 1 receptor (Homo sapiens) (UniProt P08069). Nature of the test: IGF-1R(h) Eurofins Kinase panel. To be noted: Compound concentration 1.0 uM.
Chain of Insulin-like growth factor 1 receptor (Homo sapiens) (P08069 31-736 limits assumed): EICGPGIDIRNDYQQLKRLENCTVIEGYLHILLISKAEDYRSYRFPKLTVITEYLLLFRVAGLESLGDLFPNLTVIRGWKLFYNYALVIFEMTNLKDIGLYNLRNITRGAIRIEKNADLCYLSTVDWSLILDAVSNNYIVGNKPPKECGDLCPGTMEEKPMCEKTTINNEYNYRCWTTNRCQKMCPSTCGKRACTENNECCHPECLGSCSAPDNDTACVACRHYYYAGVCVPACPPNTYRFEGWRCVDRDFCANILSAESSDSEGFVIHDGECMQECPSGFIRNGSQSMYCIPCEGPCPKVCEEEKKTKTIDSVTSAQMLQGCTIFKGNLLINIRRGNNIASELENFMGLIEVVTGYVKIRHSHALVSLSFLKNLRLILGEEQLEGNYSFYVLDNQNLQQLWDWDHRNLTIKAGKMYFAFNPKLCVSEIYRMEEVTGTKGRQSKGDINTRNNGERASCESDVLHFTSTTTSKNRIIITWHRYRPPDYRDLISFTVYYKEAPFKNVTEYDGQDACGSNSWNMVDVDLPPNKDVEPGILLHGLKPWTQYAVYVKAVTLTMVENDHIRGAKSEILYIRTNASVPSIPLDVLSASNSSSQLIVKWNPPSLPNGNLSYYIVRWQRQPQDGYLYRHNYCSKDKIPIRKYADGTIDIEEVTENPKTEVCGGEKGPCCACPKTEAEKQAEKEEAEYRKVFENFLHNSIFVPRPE
Chain of Insulin-like growth factor 1 receptor (Homo sapiens) (P08069 741-1367 limits assumed): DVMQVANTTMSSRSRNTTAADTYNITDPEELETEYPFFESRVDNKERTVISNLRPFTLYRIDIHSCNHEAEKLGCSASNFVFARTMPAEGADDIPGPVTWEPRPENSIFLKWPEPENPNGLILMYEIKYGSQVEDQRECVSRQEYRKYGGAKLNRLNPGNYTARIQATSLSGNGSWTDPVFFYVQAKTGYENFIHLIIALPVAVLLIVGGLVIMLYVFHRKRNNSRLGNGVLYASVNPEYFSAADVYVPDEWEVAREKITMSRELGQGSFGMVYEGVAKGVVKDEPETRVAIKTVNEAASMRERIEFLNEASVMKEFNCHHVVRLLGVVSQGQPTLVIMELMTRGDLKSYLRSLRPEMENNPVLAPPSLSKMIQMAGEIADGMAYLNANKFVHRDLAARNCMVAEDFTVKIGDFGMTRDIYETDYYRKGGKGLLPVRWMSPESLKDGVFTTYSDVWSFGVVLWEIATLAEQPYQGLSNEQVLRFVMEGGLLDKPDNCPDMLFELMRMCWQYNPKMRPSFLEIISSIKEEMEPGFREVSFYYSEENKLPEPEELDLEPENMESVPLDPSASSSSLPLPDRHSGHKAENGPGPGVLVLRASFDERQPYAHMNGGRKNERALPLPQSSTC
In test [12] the target is Kappa-type opioid receptor (Homo sapiens, UniProt P41145). The note with it: Compound concentration 10.0 uM.
For test [13], the target named is Leukocyte tyrosine kinase receptor (Homo sapiens) (UniProt P29376). The test is described as follows: LTK(h) Eurofins Kinase panel. The note with it: Compound concentration 1.0 uM.
Test [14] addresses T5, 5-hydroxytryptamine receptor 1A (Homo sapiens) (UniProt P08908).
T5 sequence (whole entry): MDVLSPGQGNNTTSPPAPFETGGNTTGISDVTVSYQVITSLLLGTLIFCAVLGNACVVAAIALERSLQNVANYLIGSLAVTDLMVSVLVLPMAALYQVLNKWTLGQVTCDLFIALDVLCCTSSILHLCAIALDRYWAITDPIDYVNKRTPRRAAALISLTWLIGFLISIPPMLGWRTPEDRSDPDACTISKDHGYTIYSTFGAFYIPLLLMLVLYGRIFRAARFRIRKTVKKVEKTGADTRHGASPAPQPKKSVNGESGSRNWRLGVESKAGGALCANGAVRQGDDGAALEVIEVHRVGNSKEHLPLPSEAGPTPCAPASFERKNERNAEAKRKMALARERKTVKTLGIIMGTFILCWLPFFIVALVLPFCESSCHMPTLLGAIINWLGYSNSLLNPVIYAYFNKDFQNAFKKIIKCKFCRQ
The note with it: Compound concentration 10.0 uM.

A further test concerns the target Mu-type opioid receptor (Homo sapiens, UniProt P35372). To be noted: Compound concentration 10.0 uM.
Test [15] addresses Tau-tubulin kinase 1 (Homo sapiens) (UniProt Q5TCY1). The test is described as follows: TTBK1(h) Eurofins Kinase panel. The note with it: Compound concentration 1.0 uM.
The target in test [16] is T2, D(2) dopamine receptor. Nature of the test: GPCRScan assay: inhibition of D2. Also on record: radioligand conc. used [nm] 0.4 – 1.0, parental cells stable fibroblast.
The target in test [17] is Muscarinic acetylcholine receptor M4 (Homo sapiens, UniProt P08173). The test is described as follows: GPCRScan assay: inhibition of M4. Also on record: radioligand conc. used [nm] 0.3 – 1.0, parental cells stable CHO.
Chain of Muscarinic acetylcholine receptor M4 (P08173 whole entry): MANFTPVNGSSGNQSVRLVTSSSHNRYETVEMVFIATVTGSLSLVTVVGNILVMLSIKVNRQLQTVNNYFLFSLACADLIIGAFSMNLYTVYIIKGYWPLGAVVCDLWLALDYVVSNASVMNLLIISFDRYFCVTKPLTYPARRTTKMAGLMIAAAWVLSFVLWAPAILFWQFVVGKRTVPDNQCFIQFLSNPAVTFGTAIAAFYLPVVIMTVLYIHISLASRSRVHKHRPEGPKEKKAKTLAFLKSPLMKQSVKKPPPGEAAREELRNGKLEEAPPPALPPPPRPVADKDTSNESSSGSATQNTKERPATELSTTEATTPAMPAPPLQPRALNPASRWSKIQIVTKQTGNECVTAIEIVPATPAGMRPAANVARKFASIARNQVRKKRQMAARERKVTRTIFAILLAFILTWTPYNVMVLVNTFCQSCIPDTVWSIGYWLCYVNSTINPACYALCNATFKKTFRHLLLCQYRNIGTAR

SMILES strings stand for the structures.

Chain of Mu-type opioid receptor (P35372 whole entry): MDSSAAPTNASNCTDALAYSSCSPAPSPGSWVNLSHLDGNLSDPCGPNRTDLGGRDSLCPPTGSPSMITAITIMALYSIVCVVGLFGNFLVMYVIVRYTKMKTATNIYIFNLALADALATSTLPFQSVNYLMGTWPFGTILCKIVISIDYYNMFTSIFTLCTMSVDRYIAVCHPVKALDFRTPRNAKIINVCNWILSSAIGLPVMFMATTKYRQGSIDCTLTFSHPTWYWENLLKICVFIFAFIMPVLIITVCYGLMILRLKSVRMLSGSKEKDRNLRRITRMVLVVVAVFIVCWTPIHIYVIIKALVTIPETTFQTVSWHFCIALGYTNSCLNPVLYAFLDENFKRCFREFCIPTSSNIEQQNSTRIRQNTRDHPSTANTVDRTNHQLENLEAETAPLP

As for `CNCc1ccccc1-c1csc([C@@H](C)Nc2nc(C)nc3cc(OC)c(OC)cc23)c1` [BAY-293], the inhibition was 99% in test [1]; 85% at D(1A) dopamine receptor; 71% on D(2) dopamine receptor [6]; 105% in test [12]; 81% in [14]; 93% at Mu-type opioid receptor. The % residual kinase activity in [2] was 85%; in test [3], 79%; in [4] it was 88%; in test [5], 84%; in test [7] it was 88%; in test [8], 80%. Also, the % residual kinase activity is 67% in test [9]; 79% in [10]; 74% in [11]; 75% in test [13]; 87% in test [15].
`CNCc1ccccc1-c1csc([C@H](C)Nc2nc(C)nc3cc(OC)c(OC)cc23)c1` [BAY-294]: the Ki on D(2) dopamine receptor [16] (read-out: Ki) is 2330 nM; at D(2) dopamine receptor [16] (read-out: pKi (converted)), 2000 nM; in test [17] (read-out: Ki), 303 nM; in [17] (read-out: pKi (converted)), 292 nM.
